Experimental data from patent US6916825B2, “Alkylated imidazopyridine derivatives” (Altana Pharma AG, priority 2000, dated 2005).

What was measured:
[1] = system: acid secretion of the perfused rat stomach stimulated by pentagastrin; test: Secretion-inhibiting action on perfused rat stomach (pentagastrin-stimulated acid secretion); format: in vivo; conditions: anesthetized CD rats, dose 1 μmol/kg i.v.
Text: Testing of the Secretion-inhibiting Action on Perfused Rat Stomach
In table A below, the influence of the compounds according to the invention after intravenous administration is shown on the acid secretion of the perfused rat stomach stimulated by pentagastrin.
The abdomen of anesthetized rats (CD rats, female, 200-250 g; 1.5 g/kg of i.m. urethane) was opened after tracheotomy by a median upper abdominal incision and a PVC catheter was fixed transorally in the esophagus and a further one via the pylorus such that the ends of the tubing just still projected into the gastric lumen. The catheter leading from the pylorus led outwards via a side opening in the right abdominal wall.
After thorough rinsing (about 50-100 ml), a continuous flow of warm physiological NaCl solution (0.5 ml/min, pH 6.8-6.9; Braun-Unita I) was continuously passed through the stomach at 37° C. The pH in the effluent, in each case collected at an interval of 15 minutes, was determined (pH meter 632, glass electrode EA 147; φ=5 mm, Metrohm) and the secreted HCl was determined by titration with a freshly prepared 0.01 N NaOH solution to pH 7 (Dosimat 665 Metrohm).
Gastric secretion was stimulated by continuous infusion of 1 μg/kg (=1.65 ml/h) of i.v. pentagastrin (left femoral vein) about 30 min after the end of the operation (i.e. after determination of 2 preliminary fractions). The substances to be tested were administered intravenously in 1 ml/kg of fluid volume 60 min after the start of the pentagastrin continuous infusion.
The body temperature of the animals was kept at a constant 37.8-38° C. by means of infrared irradiation and heating pads (automatic, step-free control via a rectal temperature sensor).

SMILES	melting point [°C]	Inhibition of acid secretion [1] [%]
CO[C@H]1c2ccn3c(C)c(C)nc3c2N[C@H](c2ccccc2)[C@]1(C)O [Example 7, (7S,8S,9R)-2,3,8-Trimethyl-7-methoxy-8-hydroxy-9-phenyl-7,8,9,10-tetrahydroimidazo[1,2-h]-[1,7]naphthyridine]	190	–
Cc1nc2c3c(ccn2c1C)C(=O)[C@](O)(Cc1ccccc1)[C@@H](c1ccccc1)N3 [Example 3, (8S,9R)-2,3-Dimethyl-8-benzyl-8-hydroxy-9-phenyl-7,8,9,10-tetrahydroimidazo[1,2-h][1,7]naphthyridin-7-one]	248 to 251	–
Cc1nc2c3c(ccn2c1C)[C@@](C)(O)[C@H](O)[C@@H](c1ccccc1)O3 [Example 12, (7R,8R,9R)-2,3,7-Trimethyl-7,8-dihydroxy-9-phenyl-7H-8,9-dihydropyrano[2,3-c]imidazo[1,2-a]-pyridine]	–	100
Cc1nc2c3c(ccn2c1C)[C@@H](O)[C@@](C)(O)[C@@H](c1ccccc1)N3 [Example 2, (7R,8S,9R)-2,3,8-Trimethyl-7,8-dihydroxy-9-phenyl-7,8,9,10-tetrahydroimidazo[1,2-h][1,7]naphthyridine]	180	100
Cc1nc2c3c(ccn2c1C)[C@@](C)(O)[C@H](O)[C@@H](c1ccccc1)N3 [Example 8, (7R,8R,9R)-2,3,7-Trimethyl-7,8-dihydroxy-9-phenyl-7,8,9,10-tetrahydroimidazo[1,2-h][1,7]-naphthyridine]	137 to 138	100
Cc1nc2c3c(ccn2c1C)C(=O)[C@@](C)(O)[C@@H](c1ccccc1)N3 [Example 1, (8S,9R)-2,3,8-Trimethyl-8-hydroxy-9-phenyl-7,8,9,10-tetrahydroimidazo[1,2-h][1,7]naphthyridin-7-one]	240	–
Cc1nc2c3c(ccn2c1C)[C@H](O)[C@](O)(Cc1ccccc1)[C@@H](c1ccccc1)N3 [Example 4, (7S,8S,9R)-2,3-Dimethyl-8-benzyl-7,8-dihydroxy-9-phenyl-7,8,9,10-tetrahydroimidazo[1,2-h][1,7]-naphthyridine]	115 to 122	–
C=C1c2ccn3c(C)c(C)nc3c2N[C@H](c2ccccc2)[C@H]1O [Example 10, (8S,9R)-2,3-Dimethyl-8-hydroxy-7-methylidene-9-phenyl-7,8,9,10-tetrahydroimidazo[1,2-h][1,7]-naphthyridine]	199 to 202	100
